The IC50 is the concentration that gives 50% inhibition. Lower therefore signals greater potency.

For this assay, the target named is Pepsin A-4 (Homo sapiens, UniProt P0DJD7). As to the kind of experiment: FRET-based Peptide Cleavage Assay. The note with it: pH 4.5; 22 °C.
Chain of Pepsin A-4 (P0DJD7 whole entry): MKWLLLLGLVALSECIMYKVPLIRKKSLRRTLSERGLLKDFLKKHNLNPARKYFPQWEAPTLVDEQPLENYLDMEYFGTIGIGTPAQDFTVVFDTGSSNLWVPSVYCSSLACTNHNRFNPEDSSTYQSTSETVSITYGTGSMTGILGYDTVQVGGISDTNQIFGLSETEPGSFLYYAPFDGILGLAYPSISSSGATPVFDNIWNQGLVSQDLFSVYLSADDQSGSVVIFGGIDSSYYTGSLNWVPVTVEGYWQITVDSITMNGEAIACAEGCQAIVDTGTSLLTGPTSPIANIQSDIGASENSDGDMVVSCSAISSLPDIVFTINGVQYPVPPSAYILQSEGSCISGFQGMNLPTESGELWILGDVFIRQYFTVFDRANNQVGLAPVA
`NC(N)=NC(=O)Cn1c(-c2ccccc2)ccc1C12CC3CC(CC(C3)C1)C2` [2-[2-(adamantan-1-yl)-5-phenyl-1H-pyrrol-1-yl]-N-(diaminomethylidene)acetamide] had a 50% inhibitory concentration (IC50) of more than 50 µM.

`N/C(=N/C(=O)Cn1c(-c2ccccc2)ccc1C12CC3CC(CC(C3)C1)C2)NCCCO` [2-[2-(adamantan-1-yl)-5-phenyl-1H-pyrrol-1-yl]-N-[(1Z)-amino[(3-hydroxypropyl)amino]methylidene]acetamide] had an IC50 of more than 50 µM. With `CC(=O)c1ccc(Oc2ccc(-c3ccc(-c4ccccc4Cl)n3CC(=O)NC(=N)N)cc2)cc1` [2-[2-(2-chlorophenyl)-5-[4-(4-acetylphenoxy)phenyl]-1H-pyrrol-1-yl]-N-(diaminomethylidene)acetamide] the figure was more than 50 µM; with `CCCOc1ccc(-c2ccc(-c3ccccc3Cl)n2CC(=O)NC(=N)NCCCO)cc1` [N-[(1Z)-amino[(3-hydroxypropyl)amino]methylidene]-2-[2-(2-chlorophenyl)-5-(4-propoxyphenyl)-1H-pyrrol-1-yl]acetamide], more than 50 µM.
